Reference: US11390621B2, “Chiral indole compounds and their use” (ARIAGEN, INC., priority 2019, dated 2022)
“And” between values parts separate entries of the source, which are not always exact repeats. Equal values may be shown once. Read-outs that look alike come from different tables or passages of the source.

What was measured:
[1] = Hepatocyte intrinsic clearance assay (metabolic stability), rat hepatocytes; assay type: in vitro ADME; details: rat, cryopreserved hepatocytes, Rat Hepatocytes, 1 μM test compound
Description: (§1) The liver is an important organ in the body for drug metabolism. This Example describes hepatocyte intrinsic clearance assays using both human and rat hepatocytes to evaluate the metabolic stability of the indole compounds disclosed herein. The parameters measured include t1/2 (half-life), CLint (intrinsic clearance), and EH (hepatic extraction ratio).
(§2) Testosterone (Lot FE111011-01) was obtained from Cerilliant (Round Rock, Tex.). 7-hydroxycoumarin (Lot 11631ED) was obtained from Sigma Aldrich (St. Louis, Mo.). Cryopreserved human hepatocytes pooled from ten donor males (X008001), cryopreserved male IRC/CD-1 mouse hepatocytes (M005052), INVITROGRO HI Medium (incubation), and INVITROGRO HT Medium (thawing) were obtained from Bioreclamation IVT (Baltimore, Md.). All solvents were obtained from commercial sources and used without further purification.
(§3) Each test compound was prepared as a 1 mM stock solution in DMSO. A 2 μM solution of test compound and positive controls were prepared in INVITROGRO HI Medium (incubation). These solutions were pre-warmed in a sterile incubator set to maintain 37° C., 5% CO2, and 98% humidity. Cryopreserved hepatocytes were prepared at a concentration of 2×10^6 living cells/mL in incubation media and pre-warmed in the incubator. The compound solutions and hepatocyte mixtures were then combined at a ratio of 1:1 (v:v). The final volume of the reaction mixture was 750 μL, containing 1 μM test compound (10 μM for 7-hydroxycoumarin) and […]. The reaction mixture was placed in the incubator on a plate shaker. After 0, 15, 30, 60, 90, and 120 minutes of incubation, 100 μL of reaction mixtures were removed from the incubation plate and mixed with 150 μL of ice-cold acetonitrile in a designated well of a 96-well crash plate. The 96-well crash plate was placed on ice for 15 min, and samples were centrifuged (3,600 RPM, 10 min, 4° C.) to precipitate protein. The supernatants were diluted 1:1 (v:v) with water containing 0.15 μM verapamil and/or 1 μM tolbutamide (internal standards for positive and negative modes, respectively) in a 96-well shallow injection plate. This plate was sealed for LC-MS analysis. All measurements were done in duplicate.
(§4) The residual compound remaining (% R) was determined from LC-MS peak areas by comparison to the zero time point. Metabolic half-life (t1/2) and intrinsic clearance (CLint) values were calculated from the slope of the plot of ln (% R) vs. time and the concentration of hepatocytes present in the incubation. Percent remaining at 60 minutes was calculated by plugging in the 60 minute value into the slope equation generated by the percent remaining time points.
(§5) In vivo hepatic clearance CLH was calculated using the well stirred liver model according to the following equation:
(§6) [formula] where QH is the total liver blood flow, fu is unbound fraction of the drug, and CL′int is defined as follows: CL′int=CLint×(10^6 cells/g of liver weight)×(g liver weight/kg of body weight). In the first approximation, used in this study, fu=1.
(§7) Hepatic extraction ratio EH was calculated using the following equation:
(§8) [formula] Corresponding physiological parameters used in calculations for all species are shown below in Table 3.

[2] = system: rat hepatocytes; test: as above; assay type: in vitro ADME; details: Rat Hepatocytes; well stirred liver model, fu=1
Description: as §1, §2, §3, §4, §5, §6, §7, §8

[3] = Hepatocyte intrinsic clearance assay (metabolic stability), human hepatocytes; assay type: in vitro ADME; details: male, human, cryopreserved pooled hepatocytes, Human Hepatocytes, 1 μM test compound
Description: as §1, §2, §3, §4, §5, §6, §7, §8

[4] = system: human hepatocytes; test: as above; assay type: in vitro ADME; details: Human Hepatocytes; for EH (hepatic extraction ratio): well stirred liver model, fu=1
Description: as §1, §2, §3, §4, §5, §6, §7, §8

[5] = In vivo pharmacokinetic studies in rats; set-up: species or system SD rats; details: for Tmax: read-out: Tmax
Protocol: This example describes pharmacokinetic (PK) studies of ARI-164, ARI-165, ARI-186, ARI-224, and ARI-226 in mice and rats. In the present studies, the test compounds were given to groups of mice and/or rats (N=3 in each group), intravenously (IV) at 2 mg/kg or orally (PO) at 10, 30, or 40 mg/kg. ARI-186, ARI-224 and ARI-226 were given orally to rats QD for 5 days at 10 mg/kg to assess whether decreased susceptibility to CYP1A1/1A2 metabolism would lead to increased accumulation. IV doses were formulated in DMSO, while PO doses were formulated in a 50/50 mixture of PEG400 and Tween 80 (single dose mouse and rat studies for ARI-164, ARI-165, ARI-186, ARI-224, ARI-226) or PEG400/Kolliphor HS15/Oleic Acid 45/45/10 (ARI-164 repeat dose rat study). Blood samples were collected at pre-dose and over a period of 24 hours post-dose. Plasma concentrations of the test compounds were determined by HPLC.

[6] = SD, rat, plasma, iv, 2 mg/kg, rats, single 2 mg/kg IV dose, Mean of 3 animals
[7] = SD, rat, plasma, iv, 2 mg/kg, rats, single 2 mg/kg IV dose, individual animal
[8] = Sprague-Dawley (SD), rat, plasma, iv, 2 mg/kg, rats, single 2 mg/kg IV dose, Mean of 3 animals
[9] = Sprague-Dawley (SD), rat, plasma, po, 10 mg/kg, rats, single 10 mg/kg PO dose, Mean of 3 animals
[10] = Sprague-Dawley (SD), rat, plasma, po, 10 mg/kg, rats, single 10 mg/kg PO dose, individual animal
[11] = rats, single 2 mg/kg IV dose, individual animal, 2 mg/kg
[12] = rats, single 10 mg/kg PO dose, individual animal, 10 mg/kg

## O=C(c1nc([C@@H](O)C(F)(F)F)cs1)c1c[nH]c2cc(F)ccc12 [ARI-211]
[1]
  half-life at 1 μM: 3.6 h
  hepatocyte CLint at 1 μM: 3.21 µL/min/1e6 cells
[2]
  EH (hepatic extraction ratio): 17.7%
[3]
  half-life at 1 μM: 1 h
  hepatocyte CLint at 1 μM: 11.3 µL/min/1e6 cells
[4]
  EH (hepatic extraction ratio): 23.6%

## CC[C@H](N)c1csc(C(=O)c2c[nH]c3ccc(F)cc23)n1 [ARI-218]
[1]
  half-life at 1 μM: 1 h
  hepatocyte CLint at 1 μM: 11.1 µL/min/1e6 cells
[2]
  EH (hepatic extraction ratio): 42.5%
[3]
  half-life at 1 μM: 1.3 h
  hepatocyte CLint at 1 μM: 9.16 µL/min/1e6 cells
[4]
  EH (hepatic extraction ratio): 22.2%

## NC1(c2csc(C(=O)c3c[nH]c4cc(F)ccc34)n2)CC1 [ARI-225, (4-(1-aminocyclopropyl)thiazol-2-yl)(6-fluoro-1H-indol-3-yl)methanone]
[1]
  half-life at 1 μM: 0.5 h
  hepatocyte CLint at 1 μM: 23.2 µL/min/1e6 cells
[2]
  EH (hepatic extraction ratio): 60.8%
[3]
  half-life at 1 μM: 2.3 h
  hepatocyte CLint at 1 μM: 4.96 µL/min/1e6 cells
[4]
  EH (hepatic extraction ratio): 17.8%

## O=C(c1nc([C@H](O)C(F)(F)F)cs1)c1c[nH]c2cc(F)ccc12 [ARI-212]
[1]
  half-life at 1 μM: 3 h
  hepatocyte CLint at 1 μM: 3.85 µL/min/1e6 cells
[2]
  EH (hepatic extraction ratio): 20.5%
[3]
  half-life at 1 μM: 0.3 h
  hepatocyte CLint at 1 μM: 44.1 µL/min/1e6 cells
[4]
  EH (hepatic extraction ratio): 28.9%

## CC[C@@H](N)c1csc(C(=O)c2c[nH]c3cc(F)ccc23)n1 [ARI-187, (R)-(4-(1-aminopropyl)thiazol-2-yl)(6-fluoro-1H-indol-3-yl)methanone]
[1]
  half-life at 1 μM: 2.3 h
  hepatocyte CLint at 1 μM: 4.93 µL/min/1e6 cells
[2]
  EH (hepatic extraction ratio): 24.8%
[3]
  half-life at 1 μM: 18.6 h
  hepatocyte CLint at 1 μM: 0.621 µL/min/1e6 cells
[4]
  EH (hepatic extraction ratio): 4.4%

## CCC(=O)c1csc(C(=O)c2c[nH]c3cc(F)ccc23)n1 [ARI-143, 1-(2-(6-fluoro-1H-indole-3-carbonyl)thiazol-4-yl)propan-1-one]
[2]
  EH (hepatic extraction ratio): 48.0% and 47.8% and 48.5% and 49.7% and 74.6%
[4]
  EH (hepatic extraction ratio): 26.1% and 25.5% and 25.7%

## CC[C@H](O)c1csc(C(=O)c2c[nH]c3cc(F)ccc23)n1 [ARI-164, (S)-(6-Fluoro-1H-indol-3-yl)(4-(1-hydroxypropyl)thiazol-2-yl)methanone]
[5]; [6]
  AUC(0-inf): 21500 ng·h/mL
  clearance: 1.55 mL/min/kg
[5]; SD, rat, plasma, iv, 2 mg/kg, rats, single 2 mg/kg IV dose, Mean of 3 animals, read-out: AUClast
  AUC(0-t): 21400 ng·h/mL
[5]; [7]
  AUC(0-inf): 20500 ng·h/mL
  clearance: 1.63 mL/min/kg
  half-life: 3.91 h
  Tmax: 0.083 h
[5]; SD, rat, plasma, iv, 2 mg/kg, rats, single 2 mg/kg IV dose, individual animal, read-out: AUClast
  AUC(0-t): 20300 ng·h/mL
[5]; SD, rat, plasma, iv, 2 mg/kg, rats, single 2 mg/kg IV dose, individual animal, read-out: Cmax
  Cmax: 42200 ng/mL
[5]; [8]
  MRT inf: 1.69 h
  MRT last: 1.63 h
  half-life: 2.85 h
  Tmax: 0.083 h
[5]; Sprague-Dawley (SD), rat, plasma, iv, 2 mg/kg, rats, single 2 mg/kg IV dose, Mean of 3 animals, read-out: Cmax
  Cmax: 40700 ng/mL
[5]; Sprague-Dawley (SD), rat, plasma, iv, 2 mg/kg, rats, single 2 mg/kg IV dose, Mean of 3 animals, read-out: Vss
  Vd: 0.155 L/kg
[5]; [9]
  AUC(0-inf): 2090 ng·h/mL
  MRT inf: 2.87 h
  MRT last: 2.85 h
  half-life: 1.37 h
  Tmax: 1.67 h
[5]; Sprague-Dawley (SD), rat, plasma, po, 10 mg/kg, rats, single 10 mg/kg PO dose, Mean of 3 animals, read-out: AUClast
  AUC(0-t): 2090 ng·h/mL
[5]; Sprague-Dawley (SD), rat, plasma, po, 10 mg/kg, rats, single 10 mg/kg PO dose, Mean of 3 animals, read-out: Cmax
  Cmax: 511 ng/mL
[5]; [10]
  AUC(0-inf): 2110 ng·h/mL
  MRT inf: 2.65 h
  MRT last: 2.64 h
  Tmax: 2 h
[5]; Sprague-Dawley (SD), rat, plasma, po, 10 mg/kg, rats, single 10 mg/kg PO dose, individual animal, read-out: AUClast
  AUC(0-t): 2110 ng·h/mL
[5]; Sprague-Dawley (SD), rat, plasma, po, 10 mg/kg, rats, single 10 mg/kg PO dose, individual animal, read-out: Cmax
  Cmax: 532 ng/mL
[5]; Sprague-Dawley (SD), rat, plasma, rats, 10 mg/kg PO vs 2 mg/kg IV, read-out: F (Bioavailability)
  bioavailability: 1.94%
[5]; male rats, repeat 30 mg/kg oral dose, Day 1, Mean
  Cmax/Dose: 16.6 kg·ng/mL/mg
[5]; male rats, repeat 30 mg/kg oral dose, Day 1, Mean row
  Tlast^a: 8 h
[5]; male rats, repeat 30 mg/kg oral dose, Day 7, Mean
  Cmax/Dose: 0.245 kg·ng/mL/mg
[5]; male rats, repeat 30 mg/kg oral dose, Day 7, range printed in SD row
  Tlast^a: (1-4) hr
[5]; male, Sprague-Dawley (SD), rat, plasma, po, 30 mg/kg, male rats, repeat 30 mg/kg oral dose, Day 1, Mean
  Cmax at 1 day: 499 ng/mL
[5]; male, Sprague-Dawley (SD), rat, plasma, po, 30 mg/kg, male rats, repeat 30 mg/kg oral dose, Day 1, Mean row, read-out: Tmax^a
  Tmax at 1 day: 1 h
[5]; male, Sprague-Dawley (SD), rat, plasma, po, 30 mg/kg, male rats, repeat 30 mg/kg oral dose, Day 1, Mean, read-out: AUCTlast
  AUC(0-t): 1430 ng·h/mL
[5]; male, Sprague-Dawley (SD), rat, plasma, po, 30 mg/kg, male rats, repeat 30 mg/kg oral dose, Day 7, Mean
  Cmax at 7 day: 2.93 ng/mL
[5]; male, Sprague-Dawley (SD), rat, plasma, po, 30 mg/kg, male rats, repeat 30 mg/kg oral dose, Day 7, Mean row
  Tmax at 7 day: 1 h
[5]; rats, 30 mg/kg QD
  decrease in exposure after repeat oral dosing: greater than 90%
[5]; [11]
  AUCinf: 23000 ng·h/mL and 21000 ng·h/mL
  AUClast: 23000 ng·h/mL and 21000 ng·h/mL
  Cl: 1.45 mL/min/kg and 1.58 mL/min/kg
  Cmax: 35400 ng/mL and 44500 ng/mL
  MRTinf: 1.53 h and 2.5 h and 1.04 h
  MRTlast: 1.38 h and 2.49 h and 1.03 h
  T1/2: 2.39 h and 2.24 h
  Vss: 0.149 L/kg and 0.218 L/kg and 0.0986 L/kg
[5]; [12]
  AUCinf: 2660 ng·h/mL and 1500 ng·h/mL
  AUClast: 2650 ng·h/mL and 1500 ng·h/mL
  Cmax: 646 ng/mL and 354 ng/mL
  MRTinf: 3.05 h and 2.92 h
  MRTlast: 3.02 h and 2.88 h
  T1/2: 0.56 h and 0.746 h and 2.82 h
[2]
  EH (hepatic extraction ratio): 33.3% and 34.6% and 28.8% and 35.0% and 48.8%
[3]
  half-life at 1 μM: 0.7 h
  hepatocyte CLint at 1 μM: 15.7 µL/min/1e6 cells
[4]; 1 μM test compound
  CLint: 13.556 μL/min/10^6 cells and 15.446 μL/min/10^6 cells and 13.712 μL/min/10^6 cells and 15.383 μL/min/10^6 cells
[4]
  EH (hepatic extraction ratio): 25.3% and 24.6% and 25.2% and 19.9%
